Structures are written as SMILES.

Data set [1] relates to P. gingivalis wild type W83. The experiment in a line: Time-kill experiment with high and low densities of bacteria, iron limited. Type of data set: cell-based, Porphyromonas gingivalis. As to the method:
Supplementary Figure 22. Time-kill experiment with high and low densities of P. gingivalis wild type W83 in the presence of P8 antibiotic under iron limited condition. (A) Representative planktonic growth curves show control P. gingivalis culture without P8 antibiotic (filled dark blue circle), P8 at 0.5 µM (light blue circle) and 2.5 µM (dash-filled light blue circle) added at the commencement of growth. (B) Representative planktonic growth curves shown control P. gingivalis culture without P8 antibiotic (filled dark blue circle), P8 at 0.5 µM (dash-filled light blue circle) and 2.5 µM (filled light blue circle) added to the exponentially growing cultures.
(1 picture or pasted object on this page, not shown here) […]
1) Fig. 1A still needs confirmation with the inclusion of two additional panels.
(a) Effect of 0.5 µM P8 added to the culture prior to the commencement of growth. (b) Effect of adding 0.5 µM P8 to actively growing cultures of P. gingivalis W83
Response: The growth curve studies, including addition of 0.5µM P8 prior to the commencement of […]
the commencement of growth (low bacteria density).
2.5 µM P8 under the same condition. When added to the actively growing culture (high bacteria density) of P. gingivalis W83, both 0.5 µM and 2.5 µM P8 retard growth with the 2.5 µM P8 treatment achieving a relative lower density at stationary phase. The MIC of P8 is correlated to the initial bacteria densities in the inoculum. Udekwu et al. have reported that higher concentration of antibiotics is required to achieve the MIC when treating higher densities of bacteria albeit with variation according to class of drug […]
As P8 is introduced in the later section of the main text, we have presented the results as Supplementary […]
is not uniform in panel “i”.
3) HSQC spectra for the interaction of HusA with P8 should be provided (analogous to Supplementary
Fig. 18A, where the authors have done a nice job of showing the data down to noise level). Specifically, HSQC superpositions of DPIX and P8 would make for direct comparison. Similarly, the authors would also need to show an HSQC comparison of HusA alone and bound to P8. Indeed, Supplementary Fig. 21 is helpful in analyzing the exchange regimes of a couple of residues, but it doesn't give a global picture of […]

In data set [2] the test system is P. gingivalis W83 within gingival H413 epithelial cells. The experiment in a line: Intracellular killing assay in infected H413 epithelial cells. Type of data set: cell-based, Porphyromonas gingivalis. To be noted: H413 cells infected by W83, CFU count. An excerpt:
Fig. 5 A prototype DPIX-conjugated antibiotic binds HusA and inhibits P. gingivalis. a The chemical structure of the deuteroporphyrin-lysine-metronidazole adduct, P8. b NMR signal intensity changes (black) and ^1H^N CSPs (red/green) for HusA upon addition of P8 (measured from ^15N-HSQC spectra shown in Supplementary Figure 21). c In silico docking of P8 to the energy minimized structure of HusA (conformer set 1), with residues experiencing NMR signal loss (orange) or CSPs (red/green) mapped to the structure (colouring as described in Fig. 2d). d Scaled and corrected fluorescence at 335 nm during titration of 1 μM of HusA with increasing concentrations of P8, haemin or DPIX. e Comparison of P8 inhibitory effect towards P. gingivalis wild-type W83 and husA mutants using checkerboard analysis. Serial dilutions of antibiotics (horizontal axis) were applied to a 96-well plate with different P. gingivalis strains (vertical axis). Serial dilutions of DPIX were also supplemented into wild-type W83 group to evaluate the competitive effect against P8. Absorption at OD600 of each well was recorded after 24 h of incubation. The OD600 of each strain grown in the absence of antibiotics was defined as 100% growth, which was applied to normalise the reading collected from other wells. […] Recovered bacteria were determined by CFU count. […]

Data set [3] deals with HusA. The data set can be described thus: Acid-alkaline transition of UV-vis spectra, haemin bound to HusA and Y164A/F mutants. To be noted: haemin bound to HusA and the Y164A/F mutants. In kind it is physicochemical, Porphyromonas gingivalis. As to the method: Spectra were recorded in 0.1 M NaCl with 0.1 M of the following buffers: citrate, pH 5.0; BisTris-HCl, pH 5.5; BisTris-HCl, pH 5.75: BisTris-HCl, pH 6.0; sodium phosphate, pH 6.5; sodium phosphate, pH 7.0; sodium phosphate, pH 7.5; Tris-HCl, pH 8.0; sodium borate, pH 9.0; sodium borate/NaOH, pH 9.8; sodium carbonate, pH 10.0 (not all titration points were collected for each protein)

On to `CC1=Cc2cc3[nH]c(cc4nc(cc5[nH]c(cc1n2)cc5C)C(C)=C4CCC(=O)N[C@@H](CCCCNC(=O)OC(C)(C)C)C(=O)NCCn1c([N+](=O)[O-])cnc1C)c(CCC(=O)O)c3C` [P8], for which the effect on growth result in data set [1] (0.5 µM P8 added prior to the commencement of growth (low bacteria density), dipyridyl) is “retards the growth”; in data set [1] (0.5 µM P8 added to the actively growing culture (high bacteria density)) it was “retard growth”; in data set [1] (2.5 µM P8 added prior to the commencement of growth, dipyridyl), “fails to growth”; in data set [1] (2.5 µM P8 added to the actively growing culture, relative lower density at stationary phase) it was “retard growth”. Also, the “killing of intracellular P. gingivalis” value in data set [2] is “more effective than metronidazole”.
On to `C=CC1=C(C)c2cc3[nH]c(cc4nc(cc5[nH]c(cc1n2)c(C)c5CCC(=O)O)C(CCC(=O)O)=C4C)c(C)c3C=C.[Fe+3]` [haemin], for which the “pKa of acid-alkaline transition” value in data set [3] is given as 6.1–6.5; in data set [3] (listed as haem) it was 6-6.5.
